Assay results reported in publication PMC11413854, “Reversible Control of Native GluN2B-Containing NMDA Receptors with Visible Light” (ACS Chemical Neuroscience, 2024).
Values joined by “and” are separate entries in the source; they are usually repeats but may differ in a detail not shown here. Equal entries are not always repeated.

Tested on: native NMDA currents of cultured cortical neurons
Experiment: Whole-cell patch-clamp of NMDA currents in cultured cortical neurons (DIV 6-8), spectral dependence of bound OptoNAM-3
Assay type: cell-based, mouse
Details: for inhibition of NMDA currents in cortical neurons: 2 µM
Method: We then turned to native NMDA currents. We repeated these experiments on cultured cortical neurons at days in vitro [DIV] 6–8, a stage at which GluN2B-containing NMDARs form the major population of neuronal NMDARs.[48] On cortical neurons, 2 μM OptoNAM-3 induced 70% inhibition of NMDA-induced currents in the dark. The lower inhibitory effect of trans-OptoNAM-3 on neurons compared to HEK cells is most likely due to the mixture of NMDAR subtypes expressed in neurons.[48] […] This effect is furthermore partially reversible thanks to the use of 550 nm light.
Mice were housed in the IBENS rodent central facility duly accredited by the French Ministry of Agriculture. All experiments were performed in compliance with French and European regulations on care and protection of laboratory animals (EU Directive 2010/63, French Law 2013–118, February 6, 2013), and were approved by local ethics committees and by the French Ministry of Research and Innovation (authorization numbers #05137.02, APAFIS #28867-2020121814485893). Dissociated cultures of cortical neurons were prepared from mouse embryos at E18 as described previously.[84] After removing meninges, cortices were placed in ice-cold HBSS solution. Cell dissociation was performed individually for cortices of each embryo. Cortices were incubated in 2.5% trypsin at 37 °C for 7 min, rinsed three times with 37 °C phosphate buffer saline, and finally suspended in plating medium (Neurobasal Medium, supplemented with 0.5 mM L-glutamine, 1% B27 supplement, and penicillin/streptomycin). The neurons were further dissociated by trituration, and cells were plated on poly-D-lysine coated coverslips in 24-well culture dishes at a density of 3 × 10^5 cells per well for the excitotoxicity test and that of 1 × 10^5 cells per well for patch clamp experiments. Cultures were incubated at 37 °C in a humidified atmosphere of 5% CO2. Cells were fed by changing 1/2 medium to fresh Neurobasal medium every 4 days. For the excitotoxicity experiments, after 5 days in vitro, growth of non-neuronal cells was halted by a 24 h exposure to FDX ([…] 5-fluoro-2′-deoxyuridine). The cultures were used for experiments after 6 to 14 days in vitro (DIV6–8 for patch clamp experiments and DIV14 for excitotoxicity tests).
Whole-cell patch-clamp recordings on neurons were performed 6 to 8 days after the culturing step (DIV 6–8) using the same recording conditions as for HEK cells. Recordings were performed at a holding potential of −60 mV and at room temperature. Currents were elicited by NMDA (300 μM) and D-serine (50 μM) to specifically activate NMDARs.
OptoNAM-3 was perfused in the dark onto the patched neuron (Figure 5A–C). […] Stopping perfusion ensures that trans-OptoNAM coming from the perfusion tube […] with the wavelength PSS during the illumination procedure.
OptoNAM-3 was perfused in the dark onto the patched neuron (Figures 4G,H and 5F,H). […] Then, wavelengths from 435 to 580 nm were applied and the inhibition recovery was monitored.
For the trans to cis and cis to trans isomerization study in the binding site (Figure 5C,H respectively), we decided to normalize (scale) the inhibition values of OptoNAM-3 at different wavelengths by the inhibition induced by OptoNAM-3 at 365 nm and in the dark since these two conditions represent respectively the minimum and maximum of the inhibition. We followed this equation: [drawing 2] where m ∈ [r365,rdark] is the measurement (inhibition) to be scaled, r365 and rdark correspond to the minimum (365 nm state inhibition) and maximum (dark state inhibition) of the measurement, respectively, and t365 and tdark represent the minimum and maximum of the range (OptoNAM-3 365 nm PSS and dark PSS mean inhibition). To reduce the decreasing effect of normalization onto SEM, the SEMs represented in the figures were calculated with the data injected in the first part of the equation ( [drawing 3] ). […]

proportion of cis isomer, bound OptoNAM-3 365 nm PSS (365 nm on the cell, calculated from inhibition): ~90% | proportion of cis isomer, bound OptoNAM-3 (460 nm light from dark state, calculated from inhibition): ~68% | proportion of trans isomer, bound OptoNAM-3 (at 365, 435 and 460 nm post 365 nm illumination, calculated from inhibition): ~10%
Compound: c1ccc(/N=N/c2ccc(CCNc3ccncc3)cc2)cc1 [OptoNAM-3, (E)-N-(4-(Phenyldiazenyl)phenethyl)pyridin-4-amine]
inhibition of NMDA currents in cortical neurons (365 nm irradiation on the cell (Fig 5C)): 27% ± 2% | inhibition of NMDA currents in cortical neurons (550 nm illumination from UV state (Fig 4H)): 52% ± 3% and 52.150% | inhibition of NMDA currents in cortical neurons (550 nm post 365 nm illumination (Fig 5H)): 55% ± 4% | inhibition of NMDA currents in cortical neurons (dark, NMDA 300 µM + D-serine 50 µM): 70% ± 3% and 70.580% | inhibition of NMDA currents in cortical neurons (under 365 nm illumination (Fig 4H)): 25% ± 4% and 25.090% | trans-to-cis isomerization in the binding site (550 and 580 nm applied from the dark state): did not induce visible trans-to-cis isomerization | % Inhibition (normalized), mean (Figure 5C series (from dark PSS), 365 nm): 27.607% | % Inhibition (normalized), mean (Figure 5C series (from dark PSS), 435 nm): 44.741% | % Inhibition (normalized), mean (Figure 5C series (from dark PSS), 460 nm): 50.648% | % Inhibition (normalized), mean (Figure 5C series (from dark PSS), 490 nm): 64.437% | % Inhibition (normalized), mean (Figure 5C series (from dark PSS), 525 nm): 71.178% | % Inhibition (normalized), mean (Figure 5C series (from dark PSS), 550 nm): 73.370% | % Inhibition (normalized), mean (Figure 5C series (from dark PSS), 580 nm): 73.446% | % Inhibition (normalized), mean (Figure 5C series, dark): 73.585% | % Inhibition (normalized), mean (Figure 5H series (from 365 nm PSS), 365 nm): 27.795% | % Inhibition (normalized), mean (Figure 5H series (from 365 nm PSS), 435 nm): 27.982% | % Inhibition (normalized), mean (Figure 5H series (from 365 nm PSS), 460 nm): 29.032% | % Inhibition (normalized), mean (Figure 5H series (from 365 nm PSS), 490 nm): 44.081% | % Inhibition (normalized), mean (Figure 5H series (from 365 nm PSS), 525 nm): 43.503% | % Inhibition (normalized), mean (Figure 5H series (from 365 nm PSS), 550 nm): 54.910% | % Inhibition (normalized), mean (Figure 5H series (from 365 nm PSS), 580 nm): 47.001% | % Inhibition (normalized), mean (Figure 5H series, dark): 73.111%
